Key:
Stability in rat plasma = format: in vitro ADME; settings: 37 °C, 1 μM
Description: For the experiment, human and rat plasma (SD) was thawed at room temperature and centrifuged for 5 min at 1500× g. Eucatropine (Sigma-Aldrich, USA), which is unstable in human and rat plasma, was used as a control compound.
For stability evaluation, 3 μL of 100X solutions of the tested or control compound (0.1 mM) was added to 297 μL of the corresponding plasma (prewarmed to 37 °C) to a final concentration of 1 μM. The plasma samples were incubated with the test and control compounds in the 0.65 mL microtubes at 37 °C and under 300 rpm rotation. After 15, 30, 60, and 240 min, 30 μL aliquots were taken into 1.1 mL microtubes with 180 μL of chilled acetonitrile with an internal standard of 200 ng/mL tolbutamide (Fluka). The tubes were stirred and kept at 4 °C for 15 min, then centrifuged at 1500× g for 10 min. A total of 200 μL of the supernatants was transferred into microtubes and stored at −70 °C until UPLC–MS/MS analysis.

[1] = Caco-2 cell monolayer permeability; format: in vitro ADME, human; settings: human, Caco-2; read-out: Asymmetry index
Description: (§1) The MultiScreen Caco-2 (ATCC cat. # HTB-37) test system (Millipore, St. Charles, MO, USA) was used to study the transport through a cell monolayer, according to the manufacturer’s instructions. Briefly, a study of transport from the apical membrane to the basolateral (A-B) area and in the opposite direction (B-A) was carried out on a 21-day culture of Caco-2 at a 1 µM concentration of the tested compound for 2 h. Monolayer integrity was verified by measuring electrical resistance (TEER) using a Millicell-ERS instrument. A TEER value of at least 3 KOhm/well was determined to be acceptable.

Caco-2 cells = experiment: Caco-2 cell monolayer permeability; format: in vitro ADME, human
Description: as §1

[2] = Single-dose acute toxicity, intragastric administration; format: in vivo, rat; settings: both sexes, Wistar, rat, in vivo, po; rats, intragastric, single dose; read-out: maximum tolerated dose
Description: Before administration, the BX-SI043 substance was resuspended in a 1% starch solution. The animals in the treatment groups received suspensions intragastrically in doses of 2000 mg/kg (administered in two equal doses, with a 30–40 min interval), 1000 mg/kg, 600 mg/kg, and 300 mg/kg (administered in single doses).
The animals were monitored daily for any abnormalities. On the 2nd, 7th, and 13th days after administration, the animals were clinically evaluated and weighed, and the consumption of feed and water were measured. On the 14th day, the behavior of the animals was evaluated. On the 15th day, the animals were euthanized, and the lungs (with trachea), heart, thymus, liver, kidneys, spleen, stomach, small intestine, colon, brain, adrenal glands, and testes/ovaries were fixed in 10% neutral formalin for histological evaluation.

[3] = Stability in artificial gastric juice; format: in vitro ADME; settings: pH 1.2, pepsin, 37 °C, read-out: t1/2 in artificial gastric juice
Description: (§2) During ADME studies, the concentration of the compounds was analyzed using ultra-performance liquid chromatography (UPLC) coupled with tandem mass spectrometry (MS/MS) in the multiple reaction monitoring (MRM) mode. A quantitative analysis was performed using the internal standard (IS) calibration method, with tolbutamide as the IS.
(§3) The analyses were carried out on a system composed of an Agilent 1290 Infinity UPLC system (Agilent Technologies, USA) connected by ESI interface to a tandem quadrupole mass spectrometer QTRAP 6500 (AB Sciex Corp, Framingham, MA, USA). The separation was conducted on an YMC Triart C18 50 × 2 mm, 1.9 μm column, which was kept at 35 °C. The samples were cooled to 8 °C in an autosampler, and aliquots of 1 µL were delivered onto the column. Elution was performed using gradients of A (0.1% formic acid in water) and B (0.1% formic acid in acetonitrile), at the flow rate 0.35 mL/min. […] The declustering potential was 31 V for BX and 93 V for IS, resepectively; the collision energy was attuned to 17 eV; the collision cell exit potential was 10 V for BX and 8 V for IS MRM, respectively; the analyses were recorded for 305 → 234 (BX) and 271 → 172 (tolbutamide). […]

[4] = Stability in artificial intestinal juice; format: in vitro ADME
Description: as §2, §3

CCOC(=O)c1[nH]c2cc(F)ccc2c1/N=N/N1CCCC1 [BX-SI043, Ethyl (E)-6-fluoro-3-(pyrrolidin-1-yldiazenyl)-1H-indole-2-carboxylate]
remaining in rat plasma after 15 min (Stability in rat plasma): 1.7%
efflux ratio at 2 h, 1 µM [1]: 0.37
Papp A-B (Caco-2 cells; Caco-2, 1 µM, 2 h): 0.51 10^-6 sm/s
Papp B-A (Caco-2 cells; Caco-2, 1 µM, 2 h): 0.19 10^-6 sm/s
Mass balance (Caco-2 cells; Caco-2, first value: A-B / apical): 49%
Mass balance (Caco-2 cells; Caco-2, first value: A-B / apical, listed as ВХ-SI043): 49%
Mass balance (Caco-2 cells; Caco-2, second value: B-A / basolateral): 25.1%
MTD at 14 days [2]: 600 mg/kg
half-life at 1 µM [3]: < 0.167 h
half-life at 1 µM ([4]; artificial intestinal juice with pancreatin, pH 6.8, pancreatin, 37 °C, 1 μM, read-out: t1/2 in artificial intestinal juice (converted)): 1 h
metabolism in intestinal juice after 4 h of incubation ([4]; pH 6.8, 37 °C, 4 h): fully metabolized
